From article PMC10071561, “Conformation-dependent ligand hot spots in the spliceosomal RNA helicase BRR2” (Acta Crystallographica. Section D, Structural Biology, 2023)
Where two headings read alike, the source gives them in different places. Each block holds one compound with its values, some of them ahead of it.

Columns and labels:
[1] = biological target: T1, hBRR2 (spliceosomal RNA helicase BRR2) (Homo sapiens, UniProt O75643); assay: co-crystal structure (X-ray, […] Å); assay type: binding; design: gene SNRNP200; hBRR2T1, residues 395-2129
T1 sequence (O75643 395-2129): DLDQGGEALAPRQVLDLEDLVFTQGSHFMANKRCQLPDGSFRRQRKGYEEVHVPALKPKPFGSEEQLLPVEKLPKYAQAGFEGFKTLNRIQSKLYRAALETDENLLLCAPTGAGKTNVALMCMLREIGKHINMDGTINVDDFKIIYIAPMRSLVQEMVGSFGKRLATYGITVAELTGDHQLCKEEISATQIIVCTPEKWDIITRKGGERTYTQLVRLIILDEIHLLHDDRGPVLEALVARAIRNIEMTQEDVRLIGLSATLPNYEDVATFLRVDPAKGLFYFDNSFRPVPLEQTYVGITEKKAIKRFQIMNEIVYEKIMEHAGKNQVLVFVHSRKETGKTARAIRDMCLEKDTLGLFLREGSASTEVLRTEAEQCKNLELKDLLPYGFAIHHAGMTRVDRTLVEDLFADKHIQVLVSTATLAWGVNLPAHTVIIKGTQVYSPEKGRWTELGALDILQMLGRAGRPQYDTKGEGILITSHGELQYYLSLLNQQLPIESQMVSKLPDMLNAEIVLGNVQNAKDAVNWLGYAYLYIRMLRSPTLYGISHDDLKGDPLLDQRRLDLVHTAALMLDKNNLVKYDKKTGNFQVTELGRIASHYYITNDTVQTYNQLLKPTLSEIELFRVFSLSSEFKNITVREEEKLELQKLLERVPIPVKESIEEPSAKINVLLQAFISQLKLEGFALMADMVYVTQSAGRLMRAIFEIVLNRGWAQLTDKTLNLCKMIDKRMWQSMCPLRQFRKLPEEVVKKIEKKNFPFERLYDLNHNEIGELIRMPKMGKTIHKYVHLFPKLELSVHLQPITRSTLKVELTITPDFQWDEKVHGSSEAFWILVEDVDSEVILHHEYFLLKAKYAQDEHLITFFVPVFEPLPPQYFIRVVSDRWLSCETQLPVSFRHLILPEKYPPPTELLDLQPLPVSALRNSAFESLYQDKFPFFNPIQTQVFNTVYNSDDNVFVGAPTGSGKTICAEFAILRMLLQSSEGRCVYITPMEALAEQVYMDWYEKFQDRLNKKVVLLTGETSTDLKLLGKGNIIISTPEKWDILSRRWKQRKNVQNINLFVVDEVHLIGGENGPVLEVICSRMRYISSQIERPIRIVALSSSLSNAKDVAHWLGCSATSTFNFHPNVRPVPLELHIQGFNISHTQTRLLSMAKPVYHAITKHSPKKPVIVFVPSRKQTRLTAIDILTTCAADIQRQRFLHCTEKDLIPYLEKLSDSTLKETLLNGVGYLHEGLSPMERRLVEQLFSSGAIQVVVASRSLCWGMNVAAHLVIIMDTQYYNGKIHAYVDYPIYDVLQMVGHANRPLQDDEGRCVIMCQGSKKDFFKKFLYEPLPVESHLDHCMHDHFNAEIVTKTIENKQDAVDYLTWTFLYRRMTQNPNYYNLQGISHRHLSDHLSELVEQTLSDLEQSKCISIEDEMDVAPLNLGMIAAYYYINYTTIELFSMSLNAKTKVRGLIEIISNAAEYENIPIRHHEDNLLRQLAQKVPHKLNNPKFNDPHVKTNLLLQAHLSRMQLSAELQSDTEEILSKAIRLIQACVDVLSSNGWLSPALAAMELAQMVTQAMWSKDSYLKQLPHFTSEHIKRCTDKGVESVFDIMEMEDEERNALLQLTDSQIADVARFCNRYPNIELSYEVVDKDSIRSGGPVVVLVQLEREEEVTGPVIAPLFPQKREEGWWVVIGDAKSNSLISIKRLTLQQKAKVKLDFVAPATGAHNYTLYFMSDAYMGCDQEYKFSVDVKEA

[2] = biological target: T1, hBRR2 (spliceosomal RNA helicase BRR2); assay: crystal soaking, X-ray structure ([…] Å); also U4/U6 unwinding inhibition; assay type: biochemical; design: gene SNRNP200; hBRR2T1 (residues 395-2129), N-terminal His tag not cleaved, baculovirus/High Five insect cells; isolated, without hJab1deltaC, in U4*/U6 unwinding assay
[3] = biological target: T1, hBRR2 (spliceosomal RNA helicase BRR2); assay: as above; assay type: biochemical; design: gene SNRNP200; hBRR2T1 (residues 395-2129), N-terminal His tag not cleaved, baculovirus/High Five insect cells; isolated, without hJab1deltaC, in U4*/U6 unwinding assay; remark: listed apart in the source

Structure (SMILES): [H]/N=C(/N)NS(=O)(=O)c1ccc(N)cc1 [SG, 4-amino-N-(aminoiminomethyl)benzolsulfonamide]
co-crystal structure (X-ray, 2.87 Å) [1]: In this hBRR2^T1 crystal structure, sulfaguanidine is positioned at the interface between the two helicase cassettes

IC50 [2]: > 90 µM
Structure (SMILES): O=S(=O)(NO)c1ccccc1 [compound 24, Piloty's acid]

IC50 [3]: > 1000 µM
Structure (SMILES): O=S(=O)(N=C(S)S)c1ccccc1 [compound 50]
